The values below come from publication PMC5712356, “A New Ala-122-Asn Amino Acid Change Confers Decreased Fitness to ALS-Resistant Echinochloa crus-galli” (Frontiers in Plant Science, 2017).

The assay concerns T1, ALS (acetolactate synthase; acetohydroxyacid synthase, AHAS; EC 2.2.1.6).
T1 construct: not purified; polyploid species, ALS gene copies not separated
The assay is described as follows: acetoin (Westerfeld) colorimetric ALS assay, […] nm, log-logistic fit. It counts as biochemical, Echinochloa crus-galli. The note with it: sub-population S (no known ALS mutation); Na-pyruvate, MgCl2, TPP, FAD, pH 7.0, 37 °C, 90 min; partially purified leaf extract; read-out: I50.

Structures are written as SMILES.

On to `COCc1cnc(C2=NC(C)(C(C)C)C(=O)N2)c(C(=O)O)c1` (centres unmarked) [Imazamox], for which the IC50 was 1740 nM.

In the case of `COc1cc(OC)nc(NC(=O)NS(=O)(=O)c2ncccc2C(=O)N(C)C)n1` [Nicosulfuron], the IC50 worked out at 19 nM.
